In patent US9409952B2, “Peptide-compound cyclization method” (Chugai Seiyaku Kabushiki Kaisha, priority 2011, dated 2016) one finds microsomal CLint data, which are given here for 14 molecules.

Starred links: 1 amine or outer side, 2 acyl side, 3 side chain; linkers in the order of their positions; H or OH if unused. Positions of bridges follow the written chain, without caps; N, C: chain ends. Non-standard residues stand in square brackets, D forms with d. Residues, ends and D or L forms follow the SMILES beside them. ξ: configuration not given here. *: point of attachment. Phe(3-(CH2)4CO) = O=C([C@H](Cc1cccc(CCCCC(=O)[*:3])c1)N[*:1])[*:2]; NMeF = CN[C@@H](Cc1ccccc1)C(=O)O; NMeI = CC[C@H](C)[C@H](NC)C(=O)O; NMeβAla = CN(CCC(=O)[*:2])[*:1]; NMeL = CN[C@@H](CC(C)C)C(=O)O; NMeV = CN[C@H](C(=O)O)C(C)C; Pip = O=C(O)[C@@H]1CCCCN1; NMeA = CN[C@@H](C)C(=O)O; Piperidide = C1CCN(*)CC1; ξF = NC(Cc1ccccc1)C(=O)O; Sar = CNCC(=O)O; tBu = CC(C)(C)*

One series is described as follows: Metabolic stability in human hepatic microsome. In kind it is in vitro ADME. The following applies: human, microsomes, pH 7.4, CL NADPH(+).
`CC[C@H](C)[C@@H]1NC(=O)[C@H](Cc2ccccc2)N(C)C(=O)[C@H](Cc2ccccc2)NC(=O)[C@H](C(C)C)N(C)C(=O)[C@H](CC(C)C)N(C)C(=O)[C@H](CC(C)C)NC(=O)[C@H](C)NC(=O)C[C@@H](C(=O)N2CCCCC2)NC(=O)[C@H]([C@@H](C)O)NC(=O)CNC(=O)[C@@H]2CCCN2C1=O` [DP-14] (AL[NMeL][NMeV]F[NMeF]IPGTD-Piperidide; lactam N-11): the microsomal CLint at 1 uM came out at 57 µL/min/mg.

`CC[C@H](C)[C@@H]1NC(=O)[C@H](C)NC(=O)C[C@@H](C(=O)N2CCCCC2)NC(=O)[C@H](C(C)C)NC(=O)[C@H](Cc2ccccc2)N(C)C(=O)[C@H](CC(C)C)NC(=O)[C@H]([C@@H](C)O)NC(=O)[C@H](Cc2ccccc2)NC(=O)[C@H](C)NC(=O)CN(C)C(=O)[C@H](CC(C)C)NC1=O` [DP-28] (AIL[Sar]AFTL[NMeF]VD-Piperidide; lactam N-11) showed a microsomal CLint at 1 uM of 113 µL/min/mg.

`CC[C@H](C)[C@@H]1NC(=O)[C@@H]2CCCN2C(=O)CNC(=O)[C@H](COC(C)(C)C)NC(=O)[C@H](CC(C)C)N(C)C(=O)C(Cc2ccccc2)NC(=O)CN(C)C(=O)C[C@@H](C(=O)N2CCCCC2)NC(=O)[C@H](CC(C)C)N(C)C(=O)[C@H](Cc2ccccc2)NC(=O)[C@H]([C@@H](C)O)NC(=O)[C@H](C)N(C)C1=O` (stereo partly drawn) [DP-517] ([Sar][ξF][NMeL]S(tBu)GPI[NMeA]TF[NMeL]D-Piperidide; lactam N-12): the microsomal CLint at 1 uM was found to be 31 µL/min/mg.

Consider `CC[C@H](C)[C@H](NC(=O)[C@H](C)NC(=O)CNC(=O)[C@@H]1CC(=O)N[C@@H](C)C(=O)N[C@@H](CC(C)C)C(=O)N[C@@H]([C@@H](C)O)C(=O)N(C)[C@@H](CC(C)C)C(=O)N[C@@H](Cc2ccccc2)C(=O)N2CCC[C@H]2C(=O)N[C@@H](C(C)C)C(=O)N[C@@H](Cc2ccccc2)C(=O)N(C)[C@@H](CC(C)C)C(=O)N1)C(=O)N1CCCCC1` [DP-42] (ALT[NMeL]FPVF[NMeL]DGAI-Piperidide; lactam N-10), for which the microsomal CLint at 1 uM was 17 µL/min/mg.

For `CC[C@H](C)[C@H]1C(=O)N[C@@H](C)C(=O)N(C)[C@@H](Cc2ccccc2)C(=O)N[C@@H]([C@@H](C)O)C(=O)N(C)[C@@H](CC(C)C)C(=O)N[C@@H](Cc2ccccc2)C(=O)N(C)[C@@H](C(C)C)C(=O)N[C@H](C(=O)N2CCCCC2)CC(=O)N[C@@H](C)C(=O)NCC(=O)N(C)[C@@H](CC(C)C)C(=O)N1C` [DP-31] (AG[NMeL][NMeI]A[NMeF]T[NMeL]F[NMeV]D-Piperidide; lactam N-11), the microsomal CLint at 1 uM was found to be 57 µL/min/mg.

The series is the same for the next values; noted with them: microsomes, pH 7.4; human hepatic microsome, NADPH(+); read-out: CL NADPH(+).
Take `CC[C@H](C)[C@@H]1NC(=O)[C@H](Cc2ccccc2)N(C)C(=O)[C@H](Cc2ccccc2)NC(=O)[C@H](CC(C)C)N(C)C(=O)[C@H](C(C)C)NC(=O)[C@H](CC(C)C)NC(=O)[C@H](C)N(C)C(=O)CNC(=O)[C@H](C)NC(=O)C[C@@H](C(=O)N2CCCCC2)NC(=O)[C@H]([C@@H](C)O)NC(=O)[C@H](CC(C)C)NC(=O)[C@H](C)N(C)C1=O` [DP-83] (AG[NMeA]LV[NMeL]F[NMeF]I[NMeA]LTD-Piperidide; lactam N-13): the microsomal CLint at 1 uM was determined as 39 µL/min/mg.

Turning to `CC[C@H](C)[C@H]1C(=O)NCC(=O)N(C)[C@@H](CC(C)C)C(=O)N[C@@H]([C@@H](C)O)C(=O)N2CCC[C@H]2C(=O)N[C@@H](Cc2ccccc2)C(=O)N[C@H](C(=O)N2CCCCC2)CC(=O)N(C)[C@@H](C)C(=O)N[C@@H](Cc2ccccc2)C(=O)N2CCCC[C@H]2C(=O)N[C@@H](CC(C)C)C(=O)N1C` [DP-553] ([NMeA]F[Pip]L[NMeI]G[NMeL]TPFD-Piperidide; lactam N-11), the microsomal CLint at 1 uM came to 106 µL/min/mg.

In the case of `C=C1CCC(=O)N[C@@H](CC(C)C)C(=O)N2CCC[C@H]2C(=O)N[C@@H]([C@@H](C)O)C(=O)N(C)CC(=O)N[C@@H](Cc2ccccc2)C(=O)N(C)[C@@H](C(C)C)C(=O)N(C)[C@@H](C)C(=O)N[C@@H](CC(C)C)C(=O)N(C)[C@@H](CC(C)C)C(=O)N[C@H](C(=O)N2CCCCC2)Cc2cccc1c2` [DP-866], the microsomal CLint at 1 uM came to 211 µL/min/mg.

`C=C1CCC(=O)N[C@@H](COC(C)(C)C)C(=O)N(CCC)CC(=O)N(C)[C@@H](CC(C)C)C(=O)N[C@@H]([C@@H](C)O)C(=O)N(C)[C@@H](Cc2ccccc2)C(=O)N(C)[C@@H](CC(C)C)C(=O)N(C)[C@@H]([C@@H](C)CC)C(=O)N(C)[C@@H](C)C(=O)N[C@H](C(=O)N2CCCCC2)Cc2ccc1cc2` [DP-839]: the microsomal CLint at 1 uM is 91 µL/min/mg.

For the molecule `CC[C@H](C)[C@H]1C(=O)NCC(=O)N2CCCC[C@H]2C(=O)N[C@@H]([C@@H](C)O)C(=O)N2CCC[C@H]2C(=O)N[C@@H](Cc2ccccc2)C(=O)N[C@H](C(=O)N2CCCCC2)CC(=O)N(C)[C@@H](C)C(=O)N[C@@H](Cc2ccccc2)C(=O)N(C)[C@@H](CC(C)C)C(=O)N[C@@H](CC(C)C)C(=O)N1C` [DP-557] ([NMeA]F[NMeL]L[NMeI]G[Pip]TPFD-Piperidide; lactam N-11), the microsomal CLint at 1 uM worked out at 96 µL/min/mg.

In the case of `CC(C)C[C@@H]1NC(=O)[C@H](CC(C)C)N(C)C(=O)[C@H](C)N(C)C(=O)[C@@H](C(C)C)NC(=O)C[C@@H](C(=O)N2CCCCC2)NC(=O)[C@H]([C@@H](C)O)NC(=O)[C@H](C)N(C)C(=O)CN(C)C(=O)[C@H](CC(C)C)N(C)C(=O)[C@H](Cc2c[nH]c3ccccc23)NC(=O)[C@H](Cc2ccccc2)N(C)C1=O` [DP-622] ([dV][NMeA][NMeL]L[NMeF]W[NMeL][Sar][NMeA]TD-Piperidide; lactam N-11), the microsomal CLint at 1 uM was found to be 36 µL/min/mg.

`CC(C)C[C@H]1C(=O)N(C)[C@@H](CC(C)C)C(=O)N[C@@H](C)C(=O)N(C)[C@@H](CC(C)C)C(=O)N(C)[C@@H](Cc2ccccc2)C(=O)N(C)[C@@H](Cc2ccccc2)C(=O)N[C@@H]([C@@H](C)O)C(=O)N(C)[C@@H](C)C(=O)N(C)[C@@H](CC(C)C)C(=O)N[C@H](C(=O)N2CCCCC2)Cc2cccc(c2)CCCCC(=O)N1C` [DP-859] ([NMeL][NMeL]A[NMeL][NMeF][NMeF]T[NMeA][NMeL][Phe(3-(CH2)4CO)]-Piperidide; lactam N-10): the microsomal CLint at 1 uM was determined as 87 µL/min/mg.

As to `CC[C@H](C)[C@H](NC(=O)[C@H](Cc1ccccc1)N(C)C(=O)[C@H](Cc1ccccc1)N(C)C(=O)[C@@H]1CC(=O)N(C)CCC(=O)N(C)[C@@H](CC(C)C)C(=O)N(C)[C@@H](Cc2ccccc2)C(=O)N[C@@H](CC(C)C)C(=O)N(C)[C@@H](CC(C)C)C(=O)N(C)[C@@H](CC(C)C)C(=O)N[C@@H]([C@@H](C)O)C(=O)N(C)[C@@H](C)C(=O)N1)C(=O)N1CCCCC1` [DP-960] ([NMeβAla][NMeL][NMeF]L[NMeL][NMeL]T[NMeA]D[NMeF][NMeF]I-Piperidide; lactam N-9), the microsomal CLint at 1 uM is 36 µL/min/mg.

Consider `CC(C)C[C@@H]1NC(=O)[C@H](CC(C)C)N(C)C(=O)[C@H](CC(C)C)N(C)C(=O)[C@H](Cc2ccccc2)NC(=O)[C@H](Cc2ccccc2)N(C)C(=O)[C@H](CCC(N)=O)NC(=O)[C@H](CC(C)C)N(C)C(=O)[C@H](Cc2ccccc2)NC(=O)[C@H](C)NC(=O)C[C@@H](C(=O)N(C)[C@@H](Cc2ccccc2)C(=O)N[C@@H](C)C(=O)N2CCCCC2)NC1=O` [DP-601] (AF[NMeL]Q[NMeF]F[NMeL][NMeL]LD[NMeF]A-Piperidide; lactam N-10), for which the microsomal CLint at 1 uM amounted to 21 µL/min/mg.
